According to patent US4614746A, “5-fluorobenzonitrile derivatives for increasing the lean meat to fat ratio and/or enhancing the growth rate of warm-blooded animals” (American Cyanamid Company, priority 1985, dated 1986):

Tests used:
[1] = test system: CFI female mice; test: Antilipogenic evaluation of test compounds - mouse study (fat pad and body weight, 12-day feeding); assay type: in vivo; conditions: 12 days
Method: CFI female mice from Carworth Farms are received when they are six-weeks old. They are housed ten to a cage in air-conditioned rooms (22° C. to 25° C.) with automatically-controlled lights, 14 hours on and ten hours off. The basal diet used in these studies is Purina Laboratory Chow (see description below) which is supplied ad libitum. The following is a description of the diet to which the growth-promoting compounds were added. Meat and bone meal, dried skimmed milk, wheat germ meal, fish meal, animal liver meal, dried beet pulp, ground extruded corn, ground oat groats, soybean meal, dehydrated alfalfa metal, cane molasses, animal fat preserved with BHA, vitamin B12 supplement, calcium pantothenate, choline chloride, folic acid, riboflavin supplement, brewer's dried yeast, thiamin, niacin, vitamin A supplement, D-activated plant sterol, vitamin E supplement, calcium carbonate, dicalcium phosphate, iodized salt, ferric ammonium citrate, iron oxide, manganous oxide, cobalt carbonate, copper oxide, zinc oxide. Water is also allowed ad libitum. Thirteen days after arrival, the mice are weighed in groups of ten and assigned at random to the different treatments. Each of the treatments is tested in three replicates, i.e., in three cages of ten mice each. There are ten cages of ten control mice each. Drugs are mixed in the diet at the dosage level indicated. Feed and water are offered ad libitum for a 12-day test period. Feed spilled is collected during the test period. At the end of the test period, the collected feed is weighed, and the mean feed consumption per cage of ten mice is determined for each treatment. The mice are weighed as a group of ten, and the weight gain determined. The mice are sacrificed by cervical dislocation. The right uterine fat pad of each mouse is removed. The fat pads for each cage of ten mice are weighed as a unit. Reduction in fat pad weights of animals is generally indicative of a reduction of total body fat of the treated animals.

[2] = test system: CFI female mice; test: Antilipogenic evaluation of test compounds - mouse study (Example 6, procedure of Example 4); assay type: in vivo
Method: CFI female mice from Carworth Farms are received when they are six-weeks old. They are housed ten to a cage in air-conditioned rooms (22° C. to 25° C.) with automatically-controlled lights, 14 hours on and ten hours off. The basal diet used in these studies is Purina Laboratory Chow (see description below) which is supplied ad libitum.
Thirteen days after arrival, the mice are weighed in groups of ten and assigned at random to the different treatments. Each of the treatments is tested in three replicates, i.e., in three cages of ten mice each. There are ten cages of ten control mice each. Drugs are mixed in the diet at the dosage level indicated. Feed and water are offered ad libitum for a 12-day test period. Feed spilled is collected during the test period. At the end of the test period, the collected feed is weighed, and the mean feed consumption per cage of ten mice is determined for each treatment. The mice are weighed as a group of ten, and the weight gain determined. The mice are sacrificed by cervical dislocation. The right uterine fat pad of each mouse is removed. The fat pads for each cage of ten mice are weighed as a unit. Reduction in fat pad weights of animals is generally indicative of a reduction of total body fat of the treated animals.
Following the procedure of Example 4, the analogues of the compounds of the invention in the subject Application are evaluated as antilipogenic agents.

SMILES | % Change in Body Weight vs controls ([1]; 25 ppm in diet) | % Reduction in Fat Pad Weight vs Controls ([1]; 25 ppm in diet) | % Change in Body Weight vs controls ([1]; 50 ppm in diet) | % Reduction in Fat Pad Weight vs Controls ([1]; 50 ppm in diet) | % Change in Body Weight vs controls ([1]; 100 ppm in diet) | % Reduction in Fat Pad Weight vs Controls ([1]; 100 ppm in diet) | % Change in Body Weight vs controls ([1]; 200 ppm in diet) | % Reduction in Fat Pad Weight vs Controls ([1]; 200 ppm in diet) | % Change in Body Weight vs controls ([1]; second dose, not given) | % Reduction in Fat Pad Weight vs Controls ([1]; second dose, not given) | Mouse Test Fat Pad Weight % ± Control ([2]; 100 ppm) | Mouse Test Fat Pad Weight % ± Control ([2]; 200 ppm)
CC(C)(C)NCC(O)c1cc(F)cc(C#N)c1 (centres unmarked) [drawing 13] | +96.61% | -8.97% | +80.51% | -14.04% | +65.25% | -29.65% | +55.93% | -38.13% | – | – | – | –
CC(C)N(CC(O)c1cc(F)cc(C#N)c1)C(C)C (centres unmarked) [drawing 17] | – | – | – | – | – | – | +19.05% | -19.36% | -2.38% | -15.39% | – | –
CC(C)(C)NCC(O)c1cc(F)cc(C#N)c1 (centres unmarked) [drawing 24] | – | – | – | – | – | – | – | – | – | – | -38.4% | -42.9%
CCNCC(O)c1cc(F)cc(C#N)c1 (centres unmarked) [drawing 16] | – | – | +18.8% | +4.3% | -4.1% | -33.3% | +25.3% | -37.9% | – | – | – | –
